According to paper PMC6035319 (Saudi Pharmaceutical Journal : SPJ, 2018):

Assays:
CYP3A4 = CYP3A4 (Homo sapiens, UniProt P08684); assay type: biochemical
CYP1A2 = molecular target: T1, CYP1A2 (Homo sapiens, UniProt P05177); experiment: HPLC of acetaminophen formed from phenacetin in pooled human liver microsomes; assay type: biochemical
T1 sequence (P05177 2-516): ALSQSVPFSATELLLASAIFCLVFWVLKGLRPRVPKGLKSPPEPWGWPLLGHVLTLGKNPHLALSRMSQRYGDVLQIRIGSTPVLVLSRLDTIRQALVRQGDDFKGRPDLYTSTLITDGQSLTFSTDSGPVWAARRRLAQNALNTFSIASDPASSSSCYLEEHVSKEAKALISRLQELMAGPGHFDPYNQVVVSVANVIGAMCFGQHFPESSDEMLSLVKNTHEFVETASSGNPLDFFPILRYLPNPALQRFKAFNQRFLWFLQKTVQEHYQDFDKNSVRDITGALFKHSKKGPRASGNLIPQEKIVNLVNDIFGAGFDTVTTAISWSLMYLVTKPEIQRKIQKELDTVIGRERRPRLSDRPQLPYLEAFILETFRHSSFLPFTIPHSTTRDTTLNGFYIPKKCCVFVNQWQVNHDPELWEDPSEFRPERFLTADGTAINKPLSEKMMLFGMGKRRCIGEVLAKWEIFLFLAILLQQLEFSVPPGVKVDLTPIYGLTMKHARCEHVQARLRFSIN

Chain of CYP3A4 (P08684 2-503): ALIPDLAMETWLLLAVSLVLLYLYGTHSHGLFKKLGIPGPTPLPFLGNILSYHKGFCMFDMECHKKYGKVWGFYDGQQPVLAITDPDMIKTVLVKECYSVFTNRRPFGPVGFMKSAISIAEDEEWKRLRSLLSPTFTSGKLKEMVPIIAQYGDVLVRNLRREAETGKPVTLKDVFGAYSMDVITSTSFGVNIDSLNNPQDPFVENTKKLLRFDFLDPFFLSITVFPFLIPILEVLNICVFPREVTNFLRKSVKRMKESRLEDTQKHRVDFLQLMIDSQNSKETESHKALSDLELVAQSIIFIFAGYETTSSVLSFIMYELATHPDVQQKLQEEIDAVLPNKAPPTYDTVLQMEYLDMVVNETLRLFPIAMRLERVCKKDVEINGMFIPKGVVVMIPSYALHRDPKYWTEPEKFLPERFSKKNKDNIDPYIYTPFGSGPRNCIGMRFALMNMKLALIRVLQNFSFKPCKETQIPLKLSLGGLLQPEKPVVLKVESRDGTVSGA

CC1=CC(=O)C(C(C)C)=CC1=O [thymoquinone]
IC50 (CYP3A4): 25.2 ± 3.1 µM
IC50 (CYP1A2): 26.5 ± 2.9 µM
